This note sets out measurements from US9221791B2, “Metalloenzyme inhibitor compounds” (Viamet Pharmaceuticals, Inc., priority 2011, dated 2015).

Structures are written as SMILES. Converted amounts (≈) assume the structure as drawn.

Test [1] concerns Septoria tritici (ATCC 26517). Briefly: Minimum Inhibitory Concentration (MIC) (Septoria tritici), CLSI-based microdilution. Format: cell-based. As to conditions: Zymoseptoria tritici, ATCC26517, 168 h, S. tritici ATCC 26517; 22° C. for seven days; 50% reduction in growth; read-out: Septoria Rating (MIC). The protocol: C. Minimum Inhibitory Concentration (MIC) (Septoria tritici)
Compounds of the present disclosure were assessed for their ability to inhibit the growth of a common strain of the fungal plant pathogen Septoria tritici (ATCC 26517) using a procedure based on a Clinical and Laboratory Standards Institute (CLSI) microdilution assay protocol for filamentous fungi.
Stock solutions of the test compounds and standards were prepared in DMSO at 6400 μg/mL. Each stock solution was used to prepare a 2-fold dilution series ranging from 16 to 0.016 μg/mL (total of 11 compound concentrations) in RPMI-1640 (Roswell Park Memorial Institute) medium containing 3-(N-morpholino)propanesulfonic acid (MOPS) buffer and 2% DMSO. A 100 μL aliquot of the dilutions was added to columns 1 (16 μg/mL compound) through 11 (0.016 μg/mL compound) of a 96-well microtiter plate. This format was replicated in a second row of the microtiter plate. Thus, each microtiter plate could include 11 concentrations of four test or control compounds replicated twice. A 100 μL aliquot of RPMI-1640/MOPS/2% DMSO medium was added to column 12 (no compound control) of the microtiter plate.
A fresh culture of S. tritici was used to prepare a solution of approximately 5×10^4 colony-forming units per milliliter (cfu/mL) in RPMI/MOPS medium without DMSO. A 100 µL aliquot of this solution was added to all 96 wells in the microtiter plate. […] The assay plates were incubated at 22° C. for seven days in the dark without shaking.
In each case of Table 3 the Septoria rating scale is as follows: […]
On the technique in general: In broth dilution the organism is exposed to a series of concentrations in liquid medium.

The subject of test [2] is Puccinia recondita tritici = Puccinia triticina. Kind of test: Fungicidal activity vs. leaf rust on wheat plants. Format: in vivo. The settings on record: wheat (variety Yuma) sprayed at 50 ppm, inoculated on the following day, evaluated 7-9 days later; read-out: Puccinia Rating (% Disease Control @ 50 ppm). An excerpt: D. Evaluation of Fungicidal Activity Vs. Leaf Rust (Causal Agent Puccinia recondita tritici=Puccinia triticina; Bayer Code PUCCRT). […] Each pot contained 3-8 seedlings. These plants were sprayed until wet with the formulated test compounds. The compounds were formulated at 50 ppm in 10 vol. % acetone plus 90 vol. % Triton X water (deionized water 99.99 wt %+0.01 wt % Triton X100), giving a “formulated test compound.” Formulated test compounds were applied to plants using a turn table sprayer fitted with two opposing air atomization nozzles which delivered approximately 1500 L/ha of spray volume. On the following day, the leaves were inoculated with an aqueous spore suspension of Puccinia recondita tritici and the plants were kept in high humidity overnight to permit spores to germinate and infect the leaf. The plants were then transferred to a greenhouse until disease developed on untreated control plants. Disease severity was evaluated 7-9 days later, depending on the speed of disease development. In each case of Table 3, the Puccinia rating scale is as follows: […]

Usually MIC stands for the least concentration at which growth counts as inhibited. Take `OC(Cn1cnnn1)(c1ccc(Cl)cc1F)C(F)(F)c1ccc(-n2nccn2)cn1` (stereo not shown) [Compound 28, 1-(5-(2H-1,2,3-Triazol-2-yl)pyridin-2-yl)-2-(4-chloro-2-fluorophenyl)-1,1-difluoro-3-(1H-tetrazol-1-yl)propan-2-ol]: in test [1], the MIC is at most 0.5 µg/mL. Further, the pest or weed control at 50 ppm in test [2] is 80 to 100%.

As for `OC(Cn1cncn1)(c1ccc(F)cc1F)C(F)(F)c1ccc(Cl)cn1` (stereo not shown) [Compound 29, 1-(5-Chloropyridin-2-yl)-2-(2,4-difluorophenyl)-1,1-difluoro-3-(1H-1,2,4-triazol-1-yl)propan-2-ol], in test [1], the MIC is at most 0.5 µg/mL. Also, the pest or weed control at 50 ppm in test [2] fell in the range of 80 to 100%.

`COc1ccc(-c2ccc(C(F)(F)C(O)(Cn3cnnn3)c3ccc(F)cc3F)nc2)s1` (stereo not shown) [Compound 32, 2-(2,4-Difluorophenyl)-1,1-difluoro-1-(5-(5-methoxythiophen-2-yl)pyridin-2-yl)-3-(1H-tetrazol-1-yl)propan-2-ol]: the MIC in test [1] is at most 0.5 µg/mL. Also, the pest or weed control at 50 ppm in test [2] was 40 to 59%.

Consider `OC(Cn1cnnn1)(c1ccc(F)cc1F)C(F)(F)c1ccc(-c2ccc(C(F)F)s2)cn1` (stereo not shown) [Compound 33, 1-(5-(5-(Difluoromethyl)thiophen-2-yl)pyridin-2-yl)-2-(2,4-difluorophenyl)-1,1-difluoro-3-(1H-tetrazol-1-yl)propan-2-ol], for which the MIC in test [1] is at most 0.5 µg/mL. In test [2], the pest or weed control at 50 ppm fell in the range of 80 to 100%.

With `OC(Cn1cnnn1)(c1ccc(F)cc1F)C(F)(F)c1ccc(-c2ccc(C(F)(F)F)s2)cn1` (stereo not shown) [Compound 34, 2-(2,4-Difluorophenyl)-1,1-difluoro-3-(1H-tetrazol-1-yl)-1-(5-(5-(trifluoromethyl)thiophen-2-yl)pyridin-2-yl)propan-2-ol], the MIC in test [1] was 1.5 µg/mL (≈ 2.98 µM). Besides, the pest or weed control at 50 ppm in test [2] fell in the range of 80 to 100%.

With `OC(Cn1cnnn1)(c1ccc(F)cc1F)C(F)(F)c1ccc(-c2nccs2)cn1` (stereo not shown) [Compound 38, 2-(2,4-Difluorophenyl)-1,1-difluoro-3-(1H-tetrazol-1-yl)-1-(5-(thiazol-2-yl)pyridin-2-yl)propan-2-ol], the MIC in test [1] was at most 0.5 µg/mL. Also, in test [2], the pest or weed control at 50 ppm was in the range of 80 to 100%.

Regarding `OC(Cn1cnnn1)(c1ccc(Cl)cc1F)C(F)(F)c1ccc(CC(F)(F)F)cn1` (stereo not shown) [Compound 39, 2-(4-Chloro-2-fluorophenyl)-1,1-difluoro-3-(1H-tetrazol-1-yl)-1-(5-(2,2,2-trifluoroethyl)pyridin-2-yl)propan-2-ol], in test [1], the MIC is at most 0.5 µg/mL. Also, in test [2], the pest or weed control at 50 ppm was 80 to 100%.

For the molecule `OC(Cn1cnnn1)(c1ccc(Cl)cc1F)C(F)(F)c1ccc(C2CC2)cn1` (stereo not shown) [Compound 40, 2-(4-Chloro-2-fluorophenyl)-1-(5-cyclopropylpyridin-2-yl)-1,1-difluoro-3-(1H-tetrazol-1-yl)propan-2-ol], the MIC in test [1] is at most 0.5 µg/mL. Besides, the pest or weed control at 50 ppm in test [2] lay in the range of 80 to 100%.

With `OC(Cn1cnnn1)(c1ccc(F)cc1F)C(F)(F)c1ccc(CCCOCC(F)(F)F)cn1` (stereo not shown) [Compound 45, 2-(2,4-Difluorophenyl)-1,1-difluoro-3-(1H-tetrazol-1-yl)-1-(5-(3-(2,2,2-trifluoroethoxy)propyl)pyridin-2-yl)propan-2-ol], the MIC in test [1] is at most 0.5 µg/mL. Also, in test [2], the pest or weed control at 50 ppm fell in the range of 80 to 100%.

Turning to `CCOC/C=C/c1ccc(C(F)(F)C(O)(Cn2cnnn2)c2ccc(F)cc2F)nc1` (stereo not shown) [Compound 51, (E)-2-(2,4-Difluorophenyl)-1-(5-(3-ethoxyprop-1-en-1-yl)pyridin-2-yl)-1,1-difluoro-3-(1H-tetrazol-1-yl)propan-2-ol], in test [1], the MIC is at most 0.5 µg/mL. The pest or weed control at 50 ppm in test [2] is below 40%.

As for `CCOC/C=C\c1ccc(C(F)(F)C(O)(Cn2cnnn2)c2ccc(F)cc2F)nc1` (stereo not shown) [Compound 52, (Z)-2-(2,4-Difluorophenyl)-1-(5-(3-ethoxyprop-1-en-1-yl)pyridin-2-yl)-1,1-difluoro-3-(1H-tetrazol-1-yl)propan-2-ol], the MIC in test [1] is at most 0.5 µg/mL. The pest or weed control at 50 ppm in test [2] is below 40%.

Consider `CCOCCCc1ccc(C(F)(F)C(O)(Cn2cnnn2)c2ccc(F)cc2F)nc1` (stereo not shown) [Compound 53, 2-(2,4-Difluorophenyl)-1-(5-(3-ethoxypropyl)pyridin-2-yl)-1,1-difluoro-3-(1H-tetrazol-1-yl)propan-2-ol], for which the MIC in test [1] is at most 0.5 µg/mL. The pest or weed control at 50 ppm in test [2] was in the range of 80 to 100%.

`CC(C)OC/C=C/c1ccc(C(F)(F)C(O)(Cn2cnnn2)c2ccc(F)cc2F)nc1` (stereo not shown) [Compound 54, (E)-2-(2,4-Difluorophenyl)-1,1-difluoro-1-(5-(3-isopropoxyprop-1-en-1-yl)pyridin-2-yl)-3-(1H-tetrazol-1-yl)propan-2-ol]: the MIC in test [1] worked out at 1.5 µg/mL (≈ 3.32 µM). For the same molecule, the pest or weed control at 50 ppm in test [2] is below 40%.

On to `OC(Cn1cnnn1)(c1ccc(F)cc1F)C(F)(F)c1ccc(CC2CC2)cn1` (stereo not shown) [Compound 59, 1-(5-(Cyclopropylmethyl)pyridin-2-yl)-2-(2,4-difluorophenyl)-1,1-difluoro-3-(1H-tetrazol-1-yl)propan-2-ol], for which the MIC in test [1] is at most 0.5 µg/mL. Besides, the pest or weed control at 50 ppm in test [2] lay in the range of 80 to 100%.

In the case of `OC(Cn1cnnn1)(c1ccc(Cl)cc1F)C(F)(F)c1ccc(CC2CC2)cn1` (stereo not shown) [Compound 60, 2-(4-Chloro-2-fluorophenyl)-1-(5-(cyclopropylmethyl)pyridin-2-yl)-1,1-difluoro-3-(1H-tetrazol-1-yl)propan-2-ol], in test [1], the MIC was at most 0.5 µg/mL. The pest or weed control at 50 ppm in test [2] is 80 to 100%.

On to `O=C(c1ccc(C(F)(F)F)cc1)c1ccc(C(F)(F)C(O)(Cn2cnnn2)c2ccc(F)cc2F)nc1` (stereo not shown) [Compound 66, (6-(2-(2,4-Difluorophenyl)-1,1-difluoro-2-hydroxy-3-(1H-tetrazol-1-yl)propyl)pyridin-3-yl)(4-(trifluoromethyl)phenyl)methanone], for which the MIC in test [1] was at most 0.5 µg/mL. Besides, the pest or weed control at 50 ppm in test [2] fell in the range of 80 to 100%.

In the case of `O=C(c1ccc(Cl)cc1)c1ccc(C(F)(F)C(O)(Cn2cnnn2)c2ccc(F)cc2F)nc1` (stereo not shown) [Compound 67, (4-Chlorophenyl)(6-(2-(2,4-difluorophenyl)-1,1-difluoro-2-hydroxy-3-(1H-tetrazol-1-yl)propyl)pyridin-3-yl)methanone], the MIC in test [1] is at most 0.5 µg/mL. Further, the pest or weed control at 50 ppm in test [2] was in the range of 80 to 100%.

Take `O=C(c1ccc(OCC(F)(F)F)cc1)c1ccc(C(F)(F)C(O)(Cn2cnnn2)c2ccc(F)cc2F)nc1` (stereo not shown) [Compound 68, (6-(2-(2,4-Difluorophenyl)-1,1-difluoro-2-hydroxy-3-(1H-tetrazol-1-yl)propyl)pyridin-3-yl)(4-(2,2,2-trifluoroethoxy)phenyl)methanone]: the MIC in test [1] was at most 0.5 µg/mL. Besides, in test [2], the pest or weed control at 50 ppm lay in the range of 80 to 100%.

Take `O=C(c1ccc(F)cc1)c1ccc(C(F)(F)C(O)(Cn2cnnn2)c2ccc(F)cc2F)nc1` (stereo not shown) [Compound 69, (6-(2-(2,4-Difluorophenyl)-1,1-difluoro-2-hydroxy-3-(1H-tetrazol-1-yl)propyl)pyridin-3-yl)(4-fluorophenyl)methanone]: the MIC in test [1] was at most 0.5 µg/mL. Also, the pest or weed control at 50 ppm in test [2] was 80 to 100%.

With `O=C(c1ccc(C(F)(F)C(O)(Cn2cnnn2)c2ccc(F)cc2F)nc1)c1ccc(Cl)c(F)c1` (stereo not shown) [Compound 71, (4-Chloro-3-fluorophenyl)(6-(2-(2,4-difluorophenyl)-1,1-difluoro-2-hydroxy-3-(1H-tetrazol-1-yl)propyl)pyridin-3-yl)methanone], in test [1], the MIC was at most 0.5 µg/mL. The pest or weed control at 50 ppm in test [2] was in the range of 80 to 100%.
